{"source": "patent US11213495B2", "about": "“Method and composition for decreasing the psychotomimetic side effect and addictive disorder of ketamine” (NATIONAL HEALTH RESEARCH INSTITUTES, priority 2016, dated 2022)", "type_in_all_cases": "in vivo", "key": {"Male ICR mice [1]": {"tested_on": "Male ICR mice", "assay": "Novel object recognition test (NORT)", "method": "The novel location recognition test (NLRT) and novel object recognition test (NORT) were examined in a Plexiglas open field box (35×35×30 cm) located in a sound-attenuated room and illuminated with a 20-W light bulb. The novel location and novel object recognition procedure consisted of habituation, training, and retention sessions. Habituation was conducted in two consecutive daily sessions, during which each mouse was allowed to individually explore the box in the absence of objects for 20 min. The animal is then removed from the arena and placed in its home cage. During the sample phase, each animal was placed in the box, and after 5 min, two identical sample objects (A+A) were simultaneously introduced in two corners. Each animal was allowed to explore the objects for 5 min. An animal was considered to explore the object when its head was facing the object at a distance of approximately 1 cm or less between the head and object or when it was touching or sniffing the object. The time spent exploring each object was recorded using stopwatches by an experimenter blind to the treatment condition.\nAfter the sample phase, the mice were immediately returned to their home cages. The novel location recognition test was conducted 30 min after the training session. The animals were returned to the same box as during the sample phase, and one of the two objects was replaced with a novel local corner (A+A′) to test the location-based recognition memory. After 24 hours, novel object recognition test was performed. The mice are allowed to explore the open field with one identical sample object and a novel object to assess the novel object recognition memory (A+B). The animals were allowed to explore the box freely for 5 min, and the time spent exploring each object was recorded as described above. The objects and chambers were cleaned with 70% ethanol after each use. A preference index, a ratio of the amount of time spent exploring the original object or the novel location/object over the total time spent exploring both objects, was used to evaluate recognition memory. […]"}, "Male ICR mice [2]": {"tested_on": "Male ICR mice", "assay": "Open field test / locomotor activity", "method": "To evaluate the effect of DMG on ketamine-induced locomotor hyperactivity, the animals were moved from the home cage, weighed and placed into an activity cage (Columbus Auto-Track System, Version 3.0 A, Columbus Institute, Columbus, Ohio, USA) for 2 hours. Thereafter, the test drug (0, 30, and 100 mg/kg) was given 30 min prior to ketamine (30 mg/kg) or saline. The distance (cm) traveled was recorded for totally 180 min. A 70% alcohol solution was used to clean the inner surface of all the testing apparatus between trials to remove any potentially interfering odors left by the previous mouse."}, "Male ICR mice [3]": {"tested_on": "Male ICR mice", "assay": "Forced swimming test (FST) scored by time-sampling method", "details": "day 1 and 8, post hoc vs control", "method": "(§1) FST was conducted for two consecutive days. Mice were placed in a Plexiglas cylinder (33.5 cm height, 20 cm diameter) filled with 25±2° C. water to a height of 18-20 cm. For the first exposure, mice were placed in the water for 15 min (pre-test session) followed by […]. Twenty-four hours later (day 1 test session), various doses of test drug (at 0, 30 and 100 mg/kg) was administered 30 min prior to the ketamine (10 mg/kg) or saline. Then, the mice were tested 30 min after ketamine injection which placed in the water again for a 6 min session (test session), the first 2 minutes has elapsed. Immobility was assigned when no additional activity was observed other than that required to keep the head above the water.\nThe acute and sustained effects of various doses of ketamine (3, 10, 15 mg/kg) and betaine (10, 20, 30 mg/kg) on FST were assessed on day 1 and 8, respectively (FIGS. 1A and 1B). […] There was no significant effect of test session or interaction."}, "Male ICR mice [4]": {"tested_on": "Male ICR mice", "assay": "Forced swim test (FST): duration of immobility, struggling and swimming", "method": "as §1\nThis experiment included a control group and various doses of ketamine (3, 10, 15 mg/kg), betaine (10, 20, 30 mg/kg) and betaine (10, 20, 30 mg/kg) pretreatment prior to ketamine (fixed dose at 10 mg/kg). […] There was no significant effect of test session or interaction."}, "Male ICR mice [5]": {"tested_on": "Male ICR mice", "assay": "Forced swim test (FST): duration of immobility, struggling and swimming", "details": "for duration of struggling in FST: betaine 20 mg/kg prior to ketamine 10 mg/kg"}, "[6]": {"details": "ketamine 15 mg/kg, day 7 retest session, vs control"}, "[7]": {"details": "betaine 20 and 30 mg/kg, over both sessions"}, "[8]": {"details": "betaine 30 and 100 mg/kg alone, 60 min after administration"}, "[9]": {"details": "betaine 30 mg/kg pretreatment prior to ketamine 10 mg/kg, day 1 test session"}}}
{"smiles": "CNC1(c2ccccc2Cl)CCCCC1=O", "note": "(racemic) [ketamine]", "values": [{"measurement": "recognition index", "setting": "Male ICR mice [1]; ketamine 30 mg/kg, retention session (24 h)", "result": "significantly reduced"}, {"measurement": "total travel distances after ketamine administration", "setting": "Male ICR mice [2]; ketamine 30 mg/kg, measured for 30 min", "result": "increased"}, {"measurement": "count of immobility in FST", "setting": "Male ICR mice [3]; ketamine 3, 10 and 15 mg/kg", "result": "significantly decreased"}, {"measurement": "duration of immobility in FST", "setting": "Male ICR mice [4]; ketamine 10 mg/kg, DMG experiment, tested 30 min after ketamine", "result": "significantly decreased"}, {"measurement": "duration of struggling in FST", "setting": "Male ICR mice [4]; ketamine 15 mg/kg, day 1 test session, vs control", "result": "significantly increased"}, {"measurement": "duration of struggling in FST", "setting": "Male ICR mice [4]; [6]", "result": "significantly increased"}, {"measurement": "duration of swimming in FST", "setting": "Male ICR mice [4]; [6]", "result": "significantly increased"}, {"measurement": "duration of immobility in FST", "setting": "Male ICR mice [4]; ketamine 15 mg/kg, day 7 retest session, vs vehicle control", "result": "significantly decreased"}, {"measurement": "duration of struggling in FST", "setting": "Male ICR mice [4]; ketamine 15 mg/kg, over both sessions", "result": "significantly increased"}, {"measurement": "duration of immobility in FST", "setting": "Male ICR mice [4]; ketamine 3, 10 and 15 mg/kg, day 1 test session, vs vehicle control", "result": "significantly reduced"}, {"measurement": "duration of swimming in FST", "setting": "Male ICR mice [4]; ketamine 10 and 15 mg/kg, day 1 test session, vs control", "result": "significantly increased"}, {"measurement": "duration of immobility in FST", "setting": "Male ICR mice [4]; ketamine 10 and 15 mg/kg, main effect over both sessions", "result": "significantly decreased"}, {"measurement": "duration of swimming in FST", "setting": "Male ICR mice [4]; ketamine 10 and 15 mg/kg, over both sessions", "result": "significantly increased"}]}
{"smiles": "C[N+](C)(C)CC(=O)O", "note": "[betaine]", "values": [{"measurement": "recognition impairing effects of ketamine", "setting": "Male ICR mice [1]; betaine 30 and 100 mg/kg 30 min prior to ketamine 30 mg/kg, retention session", "result": "significantly reversed"}, {"measurement": "duration of struggling in FST", "setting": "Male ICR mice [5]; day 1 test session, vs control", "result": "significantly increased"}, {"measurement": "duration of struggling in FST", "setting": "Male ICR mice [5]; over both sessions", "result": "significantly increased"}, {"measurement": "duration of swimming in FST", "setting": "Male ICR mice [5]; betaine 10, 20 and 30 mg/kg pretreatment prior to ketamine 10 mg/kg, day 1 test session, vs control", "result": "significantly increased"}, {"measurement": "duration of swimming in FST", "setting": "Male ICR mice [5]; betaine 10, 20 and 30 mg/kg pretreatment prior to ketamine 10 mg/kg, over both sessions", "result": "significantly increased"}, {"measurement": "duration of swimming in FST", "setting": "Male ICR mice [5]; [7]", "result": "significantly increased"}, {"measurement": "ketamine-induced locomotor hyperactivity", "setting": "Male ICR mice [2]; betaine 30 and 100 mg/kg 30 min prior to ketamine 30 mg/kg", "result": "not affected"}, {"measurement": "time in center", "setting": "Male ICR mice [2]; [8]", "result": "did not affect"}, {"measurement": "travel distances (locomotor activity)", "setting": "Male ICR mice [2]; [8]", "result": "did not affect"}, {"measurement": "count of immobility in FST", "setting": "Male ICR mice [3]; betaine 20 and 30 mg/kg", "result": "significantly decreased"}, {"measurement": "duration of immobility in FST compared with ketamine (10 mg/kg) alone", "setting": "Male ICR mice [4]; [9]", "result": "significantly shorter duration of immobility"}, {"measurement": "duration of swimming in FST compared with ketamine (10 mg/kg)", "setting": "Male ICR mice [4]; [9]", "result": "longer duration of swimming"}, {"measurement": "duration of immobility in FST compared with ketamine (10 mg/kg) alone", "setting": "Male ICR mice [4]; betaine 30 mg/kg pretreatment prior to ketamine 10 mg/kg, over both sessions", "result": "significantly shorter duration of immobility"}, {"measurement": "duration of struggling in FST", "setting": "Male ICR mice [4]; betaine 30 mg/kg, day 7 retest session, vs control", "result": "significantly increased"}, {"measurement": "duration of immobility in FST", "setting": "Male ICR mice [4]; betaine 10, 20 and 30 mg/kg pretreatment prior to ketamine 10 mg/kg, day 7 retest session, vs vehicle control", "result": "significantly decreased"}, {"measurement": "duration of immobility in FST", "setting": "Male ICR mice [4]; betaine 10, 20 and 30 mg/kg pretreatment prior to ketamine 10 mg/kg, main effect over both sessions", "result": "significantly decreased"}, {"measurement": "duration of immobility in FST", "setting": "Male ICR mice [4]; betaine 10, 20 and 30 mg/kg prior to ketamine 10 mg/kg, day 1 test session, vs vehicle control", "result": "significantly reduced"}, {"measurement": "duration of swimming in FST", "setting": "Male ICR mice [4]; betaine 10, 20 and 30 mg/kg prior to ketamine 10 mg/kg, day 7 retest session, vs control", "result": "significantly increased"}, {"measurement": "duration of swimming in FST", "setting": "Male ICR mice [4]; betaine 20 and 30 mg/kg, day 1 test session, vs control", "result": "significantly increased"}, {"measurement": "duration of immobility in FST", "setting": "Male ICR mice [4]; betaine 20 and 30 mg/kg, day 1 test session, vs vehicle control", "result": "significantly reduced"}, {"measurement": "duration of immobility in FST", "setting": "Male ICR mice [4]; betaine 20 and 30 mg/kg, day 7 retest session, vs vehicle control", "result": "significantly decreased"}, {"measurement": "duration of immobility in FST", "setting": "Male ICR mice [4]; betaine 20 and 30 mg/kg, main effect over both sessions", "result": "significantly decreased"}, {"measurement": "duration of struggling in FST", "setting": "Male ICR mice [4]; [7]", "result": "significantly increased"}]}
